Results published in patent US11339183B2, “Phosphate and phosphonate derivatives of 7-amino-5-thio-thiazolo[4,5-d]pyrimidines and their use in treating conditions associated with elevated levels of CX3CR1 and/or CX3CL1” (KANCERA AB, priority 2018, dated 2022).
Structures can show the parent of a compound that is named as a salt.

Assays:
[1] = Comparative kinetic solubility in phosphate buffer pH 7.4 (HPLC-UV); format: physicochemical; details: aqueous buffer, kinetic from dmso stock, nominal 250 μM in 50 mM phosphate buffer pH 7.4, agitated 1 hour, filtered
Procedure: Samples of the compound of Example 1 and (2R)-2-[(2-amino-5-{[(1S)-1-phenylethyl]sulfanyl}-[1,3] thiazolo[4,5-d]pyrimidin-7-yl)amino]-4-methylpentan-1-ol. HCl (compound A) were diluted to a nominal concentration of 250 μM in 50 mM phosphate buffer pH 7.4 then agitated for 1 hour and filtered.
Standard solutions of the two compounds at concentrations of 25 and 250 μM in 50:50 acetontrile:water were prepared.
The solutions were then analysed by reverse phase HPLC with UV-detection, and solubility was determined by the ratio of the sample peaks to the standard curve.

[2] = Plasma concentration (AUC of plasma Compound A) in mice after intravenous and peroral administration; format: in vivo; details: blood 0.083-24 hours; for AUC: male, CD1, mouse, plasma
Procedure: (§1) A peroral dosing solution of Compound A (12 mg/mL) in 30% HP-β-CD in 10 mM Na2PO4 and an intravenous dosing solution of Compound A (2.5 mg/mL) in 30% HP-β-CD in 10 mM Na2PO4 in DPBS were prepared. The intravenous dosing solution was administered to male CD1 mice (weight 28-30 g) via intravenous injection (25 mg/kg) and the peroral dosing solution was administered to male CD1 mice (weight 28-30 g) via oral gavage (120 mg/kg).
Blood was collected from the animals at time points of 0.083, 0.25, 0.5, 1, 2, 4, 6, 12 and 24 hours and analysed for blood plasma concentration, and the data generated were used to calculate the area under the curve (AUC) values shown in Table 5.
as §1, with “Compound A HCl salt (12 mg/mL)” for “Compound A (12 mg/mL)”, “Compound A HCl salt (2.5 mg/mL)” for “Compound A (2.5 mg/mL)”, “oral gavage (125 mg/kg).” for “oral gavage (120 mg/kg).”
A peroral dosing solution of Example 1 disodium salt in water (15.4 mg/mL) at a pH of 7.18 and an intravenous dosing solution of Example 1 disodium salt in water (6.4 mg/mL) at a pH of 7.11 were prepared by dissolving Example 1 diammonium salt in water and adjusting the pH with 0.1M NaOH solution. The intravenous dosing solution was administered to male CD1 mice (weight 24-25 g) via tail injection (32 mg/kg) and the peroral dosing solution was administered to male CD1 mice (weight 24-25 g) via oral gavage (154 mg/kg).

[3] = Comparative stability of solutions on long-term storage at room temperature (HPLC-MS); format: physicochemical; details: for Degradation products observed on storage in aqueous solution: HPLC-MS, storage at room temperature; for Aqueous solubility (in words): dissolving in pure water / need for co-solvents; for Stability of aqueous formulations to storage (in words): room temperature; for Compound A % area: water + 20% MeOH, 1.75 mg/mL; for Example 1 % area: aqueous solution (MilliQ water) 1.7 mg/mL
[4] = Further stability studies: aqueous solutions stored 60 days at room temperature and/or 40° C. (HPLC-MS); format: physicochemical
Procedure: Aqueous solutions of several of the example compounds were prepared at concentrations of 1.2 mg/mL (10 mg/mL for Example 1 (no salt)) according to the following procedures. • i) Examples 1 b, 2h and 3 (diammonium salts) were dissolved in pure water. • ii) Examples 1d (diammonium salt) and 1n (monoammonium salt) were suspended in water and Na2HPO3 was added until all of the compound was in solution. • iii) Examples 1q, 4f an 4g (no salts) were dissolved in water with added DMSO (100 μL) and (2-hydroxypropyl)-β-cyclodextrin was added until all of the compound was in solution.
The stability of the compounds to long-term storage in aqueous solution at room temperature and/or 40° C. was then assessed by analysis of the solution by HPLC-MS after 60 days.

[5] = aqueous solution 1.2 mg/mL, 40° C., 1d, 1n with Na2HPO3, 1q, 4f, 4g with DMSO and (2-hydroxypropyl)-β-cyclodextrin
[6] = aqueous solution 1.2 mg/mL, room temperature, 1d, 1n with Na2HPO3, 1q, 4f, 4g with DMSO and (2-hydroxypropyl)-β-cyclodextrin

**Q.** Which solubility at 1 h [1] does the source give for `CC(C)C[C@H](CO)Nc1nc(S[C@@H](C)c2ccccc2)nc2nc(N)sc12` [Compound A •HCl, (2R)-2-[(2-amino-5-{[(1S)-1-phenylethyl]sulfanyl}-[1,3]thiazolo[4,5-d]pyrimidin-7-yl)amino]-4-methylpentan-1-ol. HCl] here?
**A.** 5 µM

**Q.** And the AUC ([2]; iv, 25 mg/kg)?
**A.** 50.1 µM·h

**Q.** What about the AUC ([2]; po, 125 mg/kg, PO (oral gavage), 125 mg/kg (284 mol/kg)) of the same compound?
**A.** 170 µM·h

**Q.** Which “Compound A remaining %” value ([3]; 1.18 mg/mL in water, polyethylene glycol 24% (v/v), RT, 0 days) does the source give for `CC(C)C[C@H](CO)Nc1nc(S[C@@H](C)c2ccccc2)nc2nc(N)sc12` [Compound A, (2R)-2-[(2-amino-5-{[(1S)-1-phenylethyl]thio}[1,3]thiazolo[4,5-d]pyrimidin-7-yl)amino]-4-methylpentan-1-ol] here?
**A.** 98.5%

**Q.** What about the “Compound A remaining %” value ([3]; 1.18 mg/mL in water, polyethylene glycol 24% (v/v), RT, 3 days) of the same compound?
**A.** 97.7%

**Q.** What about the “Compound A remaining %” value ([3]; 1.18 mg/mL in water, polyethylene glycol 24% (v/v), RT, 56 days) of the same compound?
**A.** 28%

**Q.** And the “Compound A remaining %” value ([3]; 1.22 mg/mL in water, polyethylene glycol 24% (v/v), RT, 0 days)?
**A.** 98.6%

**Q.** What about the “Compound A remaining %” value ([3]; 1.22 mg/mL in water, polyethylene glycol 24% (v/v), RT, 3 days) of the same compound?
**A.** 98.0%

**Q.** And the “Compound A remaining %” value ([3]; 1.22 mg/mL in water, polyethylene glycol 24% (v/v), RT, 56 days)?
**A.** 31%

**Q.** And the “Compound A remaining %” value ([3]; 2.25 mg/mL in water, polyethylene glycol 26% (v/v), RT, 0 days)?
**A.** 98.5%

**Q.** What about the “Compound A remaining %” value ([3]; 2.25 mg/mL in water, polyethylene glycol 26% (v/v), RT, 3 days) of the same compound?
**A.** 97.7%

**Q.** And the “Compound A remaining %” value ([3]; 2.25 mg/mL in water, polyethylene glycol 26% (v/v), RT, 56 days)?
**A.** 35%

**Q.** And the “Compound A remaining %” value ([3]; 3.2 mg/mL in water, polyethylene glycol 28% (v/v), ethanol 0, RT, 0 days)?
**A.** 98.4%

**Q.** And the “Compound A remaining %” value ([3]; 3.2 mg/mL in water, polyethylene glycol 28% (v/v), ethanol 0, RT, 14 days)?
**A.** 88.1%

**Q.** And the “Compound A remaining %” value ([3]; 3.2 mg/mL in water, polyethylene glycol 28% (v/v), ethanol 0, RT, 70 days)?
**A.** 60.7%

**Q.** What about the “Compound A remaining %” value ([3]; 4.0 mg/mL in water, polyethylene glycol 25% (v/v), ethanol 3% (v/v), RT, 0 days) of the same compound?
**A.** 98.4%

**Q.** And the “Compound A remaining %” value ([3]; 4.0 mg/mL in water, polyethylene glycol 25% (v/v), ethanol 3% (v/v), RT, 14 days)?
**A.** 92.3%

**Q.** What about the “Compound A remaining %” value ([3]; 4.0 mg/mL in water, polyethylene glycol 25% (v/v), ethanol 3% (v/v), RT, 70 days) of the same compound?
**A.** 75.1%

**Q.** What about the “Degradation products observed on storage in aqueous solution” value [3] of the same compound?
**A.** the debenzylated thiol and the corresponding disulfide together with phenyl ethanol and minor amounts of styrene

**Q.** What about the “Aqueous solubility (in words)” value [3] of the same compound?
**A.** not possible to dissolve

**Q.** What about the “Stability of aqueous formulations to storage (in words)” value [3] of the same compound?
**A.** unstable to storage at room temperature

**Q.** And the “Compound A % area” value ([3]; RT, 0 days)?
**A.** 98.4% area

**Q.** And the “Compound A % area” value ([3]; RT, 4 days)?
**A.** 96.7% area

**Q.** What about the “Plasma Compound A AUC” value ([2]; male CD1 mice, IV, 25 mg/kg) of the same compound?
**A.** 45.92 µM·h

**Q.** What about the AUC ([2]; po, 120 mg/kg, PO (oral gavage), 120 mg/kg (297 mol/kg)) of the same compound?
**A.** 92.6 µM·h

**Q.** What does the source list for `CC(C)C[C@H](COP(=O)(O)O)Nc1nc(S[C@@H](C)c2ccccc2)nc2nc(N)sc12` [Example 1, (2R)-2-[(2-Amino-5-{[(1S)-1-phenylethyl]sulfanyl}[1,3]thiazolo[4,5-d]pyrimidin-7-yl)amino]-4-methylpentyl dihydrogen phosphate]?
**A.** solubility at 1 h [1]: 118 µM; Degradation products observed on storage in aqueous solution [3]: not observed; Example 1 % area ([3]; RT, 0 days of storage): 99.6 % area; Example 1 % area ([3]; RT, 4 days of storage): 99.6 % area; Example 1 % area ([3]; RT, 13 days of storage): 99.6 % area; Example 1 % area ([3]; RT, 20 days of storage): 99.6 % area; Example 1 % area ([3]; RT, 40 days of storage): 99.6 % area; Aqueous solubility (in words) [3]: improved aqueous solubility (no co-solvents required); Stability of aqueous formulations to storage (in words) [3]: unexpectedly pronounced stability over Compound A; % Area by HPLC (60 days) ([4]; Example 1 (no salt), aqueous solution 10 mg/mL, 40° C.): 100 % Area

**Q.** With `CC(C)C[C@H](COP(=O)(O)O)Nc1nc(SC(C)c2ccccc2F)nc2nc(N)sc12` (stereo partly drawn) [Example 1b, (2R)-2-[(2-Amino-5-{[1-(2-fluorophenyl)ethyl]sulfanyl}[1,3]thiazolo[4,5-d]pyrimidin-7-yl)amino]-4-methylpentyl dihydrogen phosphate] as the compound, how does the “% Area by HPLC (60 days)” value [4, 5] read?
**A.** 100 % Area

**Q.** What about the “% Area by HPLC (60 days)” value [4, 6] of the same compound?
**A.** 100 % Area

**Q.** For `CC(C)C[C@H](COP(=O)(O)O)Nc1nc(SC(C)c2ccc(Cl)cn2)nc2nc(N)sc12` (stereo partly drawn) [Example 1d, (2R)-2-[(2-Amino-5-{[1-(5-chloropyridin-2-yl)ethyl]sulfanyl}[1,3]thiazolo[4,5-d]pyrimidin-7-yl)amino]-4-methylpentyl dihydrogen phosphate], which “% Area by HPLC (60 days)” value [4, 5] is on record?
**A.** 99.7 % Area

**Q.** And the “% Area by HPLC (60 days)” value [4, 6]?
**A.** 98.0 % Area

**Q.** For `CC(C)C[C@H](COP(=O)(O)OC(C)C)Nc1nc(S[C@@H](C)c2ccccc2)nc2nc(N)sc12` [Example 1n, (2R)-2-[(2-Amino-5-{[(1S)-1-phenylethyl]sulfanyl}[1,3]thiazolo[4,5-d]pyrimidin-7-yl)amino]-4-methylpentyl 1-methylethyl hydrogen phosphate], which “% Area by HPLC (60 days)” value [4, 5] is on record?
**A.** 100 % Area

**Q.** And the “% Area by HPLC (60 days)” value [4, 6]?
**A.** 98.2 % Area

**Q.** For `CC(C)C[C@H](CO)Nc1nc(S[C@@H](C)c2ccc(Cl)cn2)nc2c1sc(=O)n2COP(=O)(O)O` [Example 2h, [5-{[(1S)-1-(5-Chloropyridin-2-yl)ethyl]sulfanyl}-7-{[(1R)-1-(hydroxymethyl)-3-methylbutyl]amino}-2-oxo[1,3]thiazolo[4,5-d]pyrimidin-3(2H)-yl]methyl dihydrogen phosphate], which “% Area by HPLC (60 days)” value [4, 5] is on record?
**A.** 82.2 % Area

**Q.** And the “% Area by HPLC (60 days)” value [4, 6]?
**A.** 92.3 % Area

**Q.** Which results are given for `CC(C)C[C@H](COP(=O)(O)O)Nc1nc(S[C@@H](C)c2ccc(Cl)cn2)nc2[nH]c(=O)sc12` [Example 3, (2R)-2-[(5-{[(1S)-1-(5-chloropyridin-2-yl)ethyl]sulfanyl}-2-oxo-2,3-dihydro[1,3]thiazolo[4,5-d]pyrimidin-7-yl)amino]-4-methylpentyl dihydrogen phosphate]?
**A.** % Area by HPLC (60 days) [4, 5]: 100 % Area; % Area by HPLC (60 days) [4, 6]: 99.6 % Area
